{
  "source": "patent US20090221603A1",
  "about": "“HETEROCYCLIC AMIDE DERIVATIVES AS CALCIUM CHANNEL BLOCKERS” (priority 2005, published 2009)",
  "key": {"[1]": {"target": "T1, human α1G T-type channels (Homo sapiens, UniProt O43497)", "T1 construct": "expressed in transfected cells", "T1 sequence (O43497 whole entry)": "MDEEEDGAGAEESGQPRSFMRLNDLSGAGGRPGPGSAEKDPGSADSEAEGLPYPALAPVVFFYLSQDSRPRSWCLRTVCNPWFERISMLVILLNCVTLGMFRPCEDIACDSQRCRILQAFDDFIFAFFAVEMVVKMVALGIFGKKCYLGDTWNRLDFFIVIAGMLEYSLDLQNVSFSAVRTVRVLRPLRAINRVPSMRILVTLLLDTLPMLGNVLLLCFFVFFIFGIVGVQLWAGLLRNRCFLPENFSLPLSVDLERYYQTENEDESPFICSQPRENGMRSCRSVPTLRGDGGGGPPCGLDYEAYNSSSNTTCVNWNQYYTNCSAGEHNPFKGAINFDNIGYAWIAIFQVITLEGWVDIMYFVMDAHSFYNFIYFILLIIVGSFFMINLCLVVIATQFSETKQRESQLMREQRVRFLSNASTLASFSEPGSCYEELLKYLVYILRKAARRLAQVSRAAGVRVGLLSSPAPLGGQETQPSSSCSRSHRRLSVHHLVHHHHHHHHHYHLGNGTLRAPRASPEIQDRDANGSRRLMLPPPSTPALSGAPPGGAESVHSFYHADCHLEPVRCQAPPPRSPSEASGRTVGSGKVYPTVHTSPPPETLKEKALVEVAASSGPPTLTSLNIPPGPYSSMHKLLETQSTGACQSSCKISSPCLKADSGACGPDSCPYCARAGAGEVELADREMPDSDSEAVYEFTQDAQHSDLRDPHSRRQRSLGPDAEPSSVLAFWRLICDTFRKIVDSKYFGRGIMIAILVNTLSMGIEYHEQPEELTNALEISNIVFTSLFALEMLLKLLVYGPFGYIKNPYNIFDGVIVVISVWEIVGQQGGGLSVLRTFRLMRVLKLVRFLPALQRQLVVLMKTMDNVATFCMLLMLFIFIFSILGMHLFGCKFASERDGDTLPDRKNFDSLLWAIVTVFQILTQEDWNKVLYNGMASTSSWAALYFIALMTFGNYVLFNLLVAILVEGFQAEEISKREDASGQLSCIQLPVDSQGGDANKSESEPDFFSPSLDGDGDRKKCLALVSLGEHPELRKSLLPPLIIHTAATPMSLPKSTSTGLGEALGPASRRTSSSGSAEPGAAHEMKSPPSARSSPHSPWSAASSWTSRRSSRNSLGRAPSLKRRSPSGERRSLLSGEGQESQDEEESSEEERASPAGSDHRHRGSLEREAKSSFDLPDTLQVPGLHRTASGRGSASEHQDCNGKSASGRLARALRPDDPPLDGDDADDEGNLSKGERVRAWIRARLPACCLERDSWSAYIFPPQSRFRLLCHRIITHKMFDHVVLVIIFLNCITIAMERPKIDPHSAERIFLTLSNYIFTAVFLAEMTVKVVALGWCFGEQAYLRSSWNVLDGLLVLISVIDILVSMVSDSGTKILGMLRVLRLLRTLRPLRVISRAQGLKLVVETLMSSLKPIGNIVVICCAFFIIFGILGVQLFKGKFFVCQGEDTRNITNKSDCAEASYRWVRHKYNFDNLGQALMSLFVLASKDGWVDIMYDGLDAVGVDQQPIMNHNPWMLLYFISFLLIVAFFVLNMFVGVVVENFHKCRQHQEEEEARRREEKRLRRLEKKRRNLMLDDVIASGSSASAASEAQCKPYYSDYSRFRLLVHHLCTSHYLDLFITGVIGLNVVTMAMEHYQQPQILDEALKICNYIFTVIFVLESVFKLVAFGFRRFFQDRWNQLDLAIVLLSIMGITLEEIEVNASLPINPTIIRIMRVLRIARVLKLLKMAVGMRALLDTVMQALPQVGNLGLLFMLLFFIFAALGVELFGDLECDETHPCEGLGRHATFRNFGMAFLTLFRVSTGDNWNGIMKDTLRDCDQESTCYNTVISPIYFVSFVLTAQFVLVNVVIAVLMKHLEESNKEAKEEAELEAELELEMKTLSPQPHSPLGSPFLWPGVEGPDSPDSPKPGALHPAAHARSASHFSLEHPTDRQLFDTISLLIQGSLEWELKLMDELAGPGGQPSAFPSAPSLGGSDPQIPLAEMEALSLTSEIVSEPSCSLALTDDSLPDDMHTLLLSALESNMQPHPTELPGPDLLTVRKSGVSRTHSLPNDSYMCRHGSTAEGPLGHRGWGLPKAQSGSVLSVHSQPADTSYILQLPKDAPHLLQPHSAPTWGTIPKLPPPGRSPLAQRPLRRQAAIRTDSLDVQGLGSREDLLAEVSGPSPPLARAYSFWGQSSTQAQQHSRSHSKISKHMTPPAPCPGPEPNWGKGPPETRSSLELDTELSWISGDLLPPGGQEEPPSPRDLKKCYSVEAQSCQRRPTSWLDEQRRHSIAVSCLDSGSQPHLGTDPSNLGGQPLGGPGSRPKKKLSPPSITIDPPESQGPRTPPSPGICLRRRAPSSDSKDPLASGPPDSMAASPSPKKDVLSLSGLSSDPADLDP", "assay": "T-type calcium channel block, patch clamp in HEK cell lines", "format": "cell-based", "conditions": "mainly non-inactivated protocol; HEK cells expressing human α1G; read-out: IC50 @ −80 mV"}, "[2]": {"target": "T2, rat brain N-type calcium channel subunits (α1B+α2δ+β1b cDNA subunits) (Rattus norvegicus, UniProt Q02294)", "T2 construct": "expressed in transfected cells; host or cells: HEK 293 (stably, alternatively transiently, transfected)", "assay": "N-type calcium channel block, whole cell patch clamp in HEK 293 cells", "format": "cell-based", "conditions": "holding potential −80 mV to +10 mV", "protocol": "A. Transformation of HEK Cells: • N-type calcium channel blocking activity was assayed in human embryonic kidney cells, HEK 293, stably transfected with the rat brain N-type calcium channel subunits (α1B+α2δ+β1b cDNA subunits). Alternatively, N-type calcium channels (α1B+α2δ+β1b cDNA subunits), L-type channels (α1C+α2δ+β1b cDNA subunits) and P/Q-type channels (α1A+α2δ+β1b cDNA subunits) were transiently expressed in HEK 293 cells. Briefly, cells were cultured in Dulbecco's modified eagle medium (DMEM) supplemented with 10% fetal bovine serum, 200 U/ml penicillin and 0.2 mg/ml streptomycin at 37° C. with 5% CO2. At 85% confluency cells were split with 0.25% trypsin/1 mM EDTA and plated at 10% confluency on glass coverslips. At 12 hours the medium was replaced and the cells transiently transfected using a standard calcium phosphate protocol and the appropriate calcium channel cDNA's. Fresh DMEM was supplied and the cells transferred to 28° C./5% CO2. Cells were incubated for 1 to 2 days prior to whole cell recording.\nB. Measurement of Inhibition\nWhole cell patch clamp experiments were performed using an Axopatch 200B amplifier (Axon Instruments, Burlingame, Calif.) linked to a personal computer equipped with pCLAMP software. The external and internal recording solutions contained, respectively, 5 mM BaCl2, 10 mM MgCl2, 10 mM HEPES, 40 mM TEACl, 10 mM glucose, 87.5 mM CsCl (pH 7.2) and 108 mM CsMS, 4 mM MgCl2, 9 mM EGTA, 9 mM HEPES (pH 7.2). Currents were typically elicited from a holding potential of −80 mV to +10 mV using Clampex software (Axon Instruments). Typically, currents were first elicited with low frequency stimulation (0.067 Hz) and allowed to stabilize prior to application of the compounds. The compounds were then applied during the low frequency pulse trains for two to three minutes to assess tonic block, and subsequently the pulse frequency was increased to 0.2 Hz to assess frequency dependent block. Data were analyzed using Clampfit (Axon Instruments) and SigmaPlot 4.0 (Jandel Scientific)."}, "[3]": {"system": "tactile allodynia after L5/L6 spinal nerve ligation", "assay": "Spinal nerve ligation model of neuropathic pain, tactile allodynia (von Frey)", "format": "in vivo, rat", "conditions": "SNL rats; orally in propylene glycol solution, 300 mg/kg", "excerpt": "Spinal nerve ligation (SNL) injury was induced using the procedure of Kim and Chung, (Kim, S. H., et al., Pain (1992) 50:355-363) in male Sprague-Dawley rats (Harlan; Indianapolis, Ind.) weighing 200 to 300 grams. Anesthesia was induced with 2% halothane in O2 at 2 L/min and maintained with 0.5% halothane in O2. After surgical preparation of the rats and exposure of the dorsal vertebral column from L4 to S2, the L5 and L6 spinal nerves were tightly ligated distal to the dorsal root ganglion using 4-0 silk suture. The incision was closed, and the animals were allowed to recover for 5 days. […] Sham control rats underwent the same operation and handling as the experimental animals, but without SNL. The assessment of tactile allodynia consisted of measuring the withdrawal threshold of the paw ipsilateral to the site of nerve injury in response to probing with a series of calibrated von Frey filaments. Each filament was applied perpendicularly to the plantar surface of the ligated paw of rats kept in suspended wire-mesh cages. Measurements were taken before and after administration of drug or vehicle. Withdrawal threshold was determined by sequentially increasing and decreasing the stimulus strength (“up and down” method), analyzed using a Dixon non-parametric test (Chaplan S. R., et al., J Pharmacol Exp Ther (1994) 269:1117-1123), and expressed as the mean withdrawal threshold."}, "[4]": {"system": "T-type over L-type channels", "conditions": "cited from earlier work"}, "[5]": {"conditions": "low frequency stimulation 0.067 Hz (tonic block), read-out: IC50 @ 0.067 Hz"}, "[6]": {"conditions": "pulse frequency 0.2 Hz (frequency dependent block), read-out: IC50 @ 0.2 Hz"}},
  "note": "Read-outs that look alike come from different tables or passages of the source.",
  "data": [
    {"molecule": "O=C(CNC(c1ccccc1)c1ccccc1)N1CCN(C(c2ccccc2)c2ccccc2)CC1", "note": "[Compound 1, 2-benzhydrylamino-1-(4-benzhydrylpiperazin-1-yl)ethanone]", "values": [
      {"measurement": "IC50", "setting": "[1]", "result": 80, "unit": "nM"},
      {"measurement": "IC50", "setting": "[2]; [5]", "result": 140, "unit": "nM"},
      {"measurement": "IC50", "setting": "[2]; [6]", "result": 80, "unit": "nM"}
    ]},
    {"molecule": "CN(CC(=O)N1CCN(C(c2ccccc2)c2ccccc2)CC1)C(c1ccccc1)c1ccccc1", "note": "[Compound 2, 2-benzhydryl(methyl)amino-1-(4-benzhydrylpiperazin-1-yl)ethanone]", "values": [
      {"measurement": "IC50", "setting": "[1]", "result": 2900, "unit": "nM"},
      {"measurement": "IC50", "setting": "[2]; [5]", "result": 520, "unit": "nM"},
      {"measurement": "IC50", "setting": "[2]; [6]", "result": 310, "unit": "nM"}
    ]},
    {"molecule": "CN(CC(=O)N1CCN(C(c2ccccc2)c2ccc(F)cc2)CC1)C(c1ccccc1)c1ccccc1", "note": "(centres unmarked) [Compound 6, 2-benzhydryl(methyl)amino-1-(4-((4-fluorophenyl)(phenyl)methyl)piperazin-1-yl)ethanone]", "values": [
      {"measurement": "IC50", "setting": "[1]", "result": 2000, "unit": "nM"},
      {"measurement": "IC50", "setting": "[2]; [5]", "result": 170, "unit": "nM"},
      {"measurement": "IC50", "setting": "[2]; [6]", "result": 120, "unit": "nM"}
    ]},
    {"molecule": "O=C(COc1ccc(Cl)cc1Cl)N1CCN(C(c2ccccc2)c2ccccc2)CC1", "note": "[Compound 26, 1-(4-benzhydrylpiperazin-1-yl)-2-(2,4-dichlorophenoxy)ethanone]", "values": [
      {"measurement": "IC50", "setting": "[1]", "result": 1260, "unit": "nM"},
      {"measurement": "IC50", "setting": "[2]; [5]", "result": 250, "unit": "nM"},
      {"measurement": "IC50", "setting": "[2]; [6]", "result": 190, "unit": "nM"}
    ]},
    {"molecule": "O=C(CNC(c1ccccc1)c1ccccc1)N1CCN(C(c2ccc(F)cc2)c2ccc(F)cc2)CC1", "note": "[Compound 29, 2-(benzhydrylamino)-1-(4-(bis(4-fluorophenyl)methyl)piperazin-1-yl)ethanone]", "values": [
      {"measurement": "IC50", "setting": "[1]", "result": 9690, "unit": "nM"},
      {"measurement": "IC50", "setting": "[2]; [5]", "result": 270, "unit": "nM"},
      {"measurement": "IC50", "setting": "[2]; [6]", "result": 140, "unit": "nM"}
    ]},
    {"molecule": "O=C(COC(c1ccccc1)c1ccccc1)N1CCN(C(c2ccccc2)c2ccccc2)CC1", "note": "[Compound 30, 2-(benzhydryloxy)-1-(4-benzhydrylpiperazin-1-yl)ethanone]", "values": [
      {"measurement": "IC50", "setting": "[1]", "result": 590, "unit": "nM"},
      {"measurement": "IC50", "setting": "[2]; [5]", "result": 490, "unit": "nM"},
      {"measurement": "IC50", "setting": "[2]; [6]", "result": 270, "unit": "nM"}
    ]},
    {"molecule": "O=C(COC(c1ccccc1)c1ccccc1)N1CCN(C(c2ccc(F)cc2)c2ccc(F)cc2)CC1", "note": "[Compound 46, 2-(benzhydryloxy)-1-(4-(bis(4-fluorophenyl)methyl)piperazin-1-yl)ethanone]", "values": [
      {"measurement": "IC50", "setting": "[1]", "result": 350, "unit": "nM"},
      {"measurement": "IC50", "setting": "[2]; [5]", "result": 920, "unit": "nM"},
      {"measurement": "IC50", "setting": "[2]; [6]", "result": 430, "unit": "nM"}
    ]},
    {"molecule": "O=C(C[S+]([O-])C(c1ccccc1)c1ccccc1)N1CCN(C(c2ccc(F)cc2)c2ccc(F)cc2)CC1", "note": "(centres unmarked) [Compound 48, 2-(benzhydrylsulfinyl)-1-(4-(bis(4-fluorophenyl)methyl)piperazin-1-yl)ethanone]", "values": [
      {"measurement": "IC50", "setting": "[1]", "result": 310, "unit": "nM"},
      {"measurement": "IC50", "setting": "[2]; [5]", "result": 220, "unit": "nM"},
      {"measurement": "IC50", "setting": "[2]; [6]", "result": 160, "unit": "nM"}
    ]},
    {"molecule": "O=C(CNC(c1ccccc1)c1ccccc1)N1CCN(C(c2ccccc2)c2ccccc2)C(CO)C1", "note": "(centres unmarked) [Compound 49, 2-benzhydrylamino-1-(4-benzhydryl-3-hydroxymethylpiperazin-1-yl)ethanone]", "values": [
      {"measurement": "reversal of allodynia", "setting": "[3]", "result": "complete reversal of allodynia"},
      {"measurement": "IC50", "setting": "[1]", "result": 370, "unit": "nM"},
      {"measurement": "IC50", "setting": "[2]; [5]", "result": 490, "unit": "nM"},
      {"measurement": "IC50", "setting": "[2]; [6]", "result": 290, "unit": "nM"}
    ]},
    {"molecule": "COCC1CN(C(=O)CNC(c2ccccc2)c2ccccc2)CCN1C(c1ccccc1)c1ccccc1", "note": "(centres unmarked) [Compound 53, 2-benzhydrylamino-1-(4-benzhydryl-3-methoxymethylpiperazin-1-yl)ethanone]", "values": [
      {"measurement": "IC50", "setting": "[1]", "result": 490, "unit": "nM"},
      {"measurement": "IC50", "setting": "[2]; [5]", "result": 250, "unit": "nM"},
      {"measurement": "IC50", "setting": "[2]; [6]", "result": 150, "unit": "nM"}
    ]},
    {"molecule": "COCC(=O)O[C@]1(CCN(C)CCCc2nc3ccccc3[nH]2)CCc2cc(F)ccc2[C@@H]1C(C)C", "note": "[Mibefradil]", "values": [
      {"measurement": "selectivity for T-type over L-type channels", "setting": "[4]", "result": "10-30 fold"}
    ]}
  ]
}
